From ChEMBL document CHEMBL3751770, “Identification of benzothiophene amides as potent inhibitors of human nicotinamide phosphoribosyltransferase” (Bioorg Med Chem Lett, 2016) come the findings set out here.

Structures are written as SMILES.

Experiment [1] deals with Nicotinamide phosphoribosyltransferase (Homo sapiens, UniProt P43490). Kind of experiment: Inhibition of human Nampt using NAM as substrate after 15 mins by fluorometric method.
The next experiment relates to MDA-MB-231. Description: Cytotoxicity against human MDA-MB-231 cells after 72 hrs by MTT assay. It is filed as functional, cell-based. The conditions noted are these: MDA-MB-231, 72 h. In general terms: Tetrazolium dyes change colour on reduction, which living cells bring about.
Experiment [2] relates to HepG2. Kind of experiment: Cytotoxicity against human HepG2 cells after 72 hrs by MTT assay. It is filed as functional, cell-based. The conditions noted are these: HepG2, 72 h.
The nature of experiment [3]: Cytotoxicity against human HCT116 cells after 72 hrs by MTT assay. The note with it: HCT-116, 72 h. It is filed as functional, cell-based.
Experiment [4] deals with HepG2. Kind of experiment: Induction of apoptosis in human HepG2 cells assessed as early apoptotic cells level at 5 uM after 48 hrs using annexin VFITC/propidium iodide staining by flow cytometry (reference value: 2.84%). It is filed as functional. A general note: Flow cytometry measures light scatter and fluorescence of single cells or particles in a stream.
The test system of experiment [5] is HepG2. Description: Induction of apoptosis in human HepG2 cells assessed as necrotic cells level at 5 uM after 48 hrs using annexin VFITC/propidium iodide staining by flow cytometry (reference value: 4.09%). It counts as functional.
The subject of experiment [6] is HepG2. Description: Induction of apoptosis in human HepG2 cells assessed as late apoptotic cells level at 5 uM after 48 hrs using annexin VFITC/propidium iodide staining by flow cytometry (reference value: 2.85%). It is filed as functional.

Nicotinamide phosphoribosyltransferase, sequence (P43490 whole entry): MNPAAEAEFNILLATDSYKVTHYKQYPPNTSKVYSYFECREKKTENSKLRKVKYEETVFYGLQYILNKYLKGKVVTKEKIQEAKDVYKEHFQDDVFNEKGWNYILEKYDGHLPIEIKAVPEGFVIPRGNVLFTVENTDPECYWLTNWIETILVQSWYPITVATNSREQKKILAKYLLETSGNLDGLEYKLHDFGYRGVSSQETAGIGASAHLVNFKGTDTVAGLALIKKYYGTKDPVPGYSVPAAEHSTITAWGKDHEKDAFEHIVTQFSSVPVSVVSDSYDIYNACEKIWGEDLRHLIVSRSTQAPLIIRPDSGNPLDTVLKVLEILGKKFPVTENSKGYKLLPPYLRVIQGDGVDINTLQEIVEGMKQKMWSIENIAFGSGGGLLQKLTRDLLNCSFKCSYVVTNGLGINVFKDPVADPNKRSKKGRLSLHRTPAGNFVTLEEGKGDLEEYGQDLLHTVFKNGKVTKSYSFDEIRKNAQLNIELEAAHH

`O=C(/C=C/c1cccnc1)NCCCn1ccnc1`: the IC50 in experiment [1] is above 10 µM; in the experiment with MDA-MB-231, above 276 µM; in the experiment on HepG2 [2] it was above 276 µM; in experiment [3], above 276 µM.
For `O=C(NCCCn1ccnc1)c1cc2ccccc2s1`, the IC50 in experiment [1] is 1.1 µM; in the experiment on MDA-MB-231, 36 µM; in the experiment on HepG2 [2] it was 5.2 µM; in experiment [3] it was 25 µM. For the same molecule, the Activity in the experiment on HepG2 [4] is reported as 1.88%; in the experiment on HepG2 [5], 6.75%; in the experiment on HepG2 [6], 24.42%.
With `COc1ccc(CCNC(=O)CNC(=O)c2ccc(C)s2)cc1OC`, the IC50 in experiment [1] is 0.95 µM; in the experiment with MDA-MB-231, above 401 µM; in the experiment on HepG2 [2], above 401 µM; in experiment [3], above 401 µM.
Regarding `Cc1ccsc1C(=O)NCCCn1ccnc1`, the IC50 is above 10 µM in experiment [1], above 276 µM with MDA-MB-231, 102 µM with HepG2 [2] and 198 µM in experiment [3].
For the molecule `Cc1ccc(C(=O)NCCCn2ccnc2)s1`, the IC50 in experiment [1] was 0.17 µM; in the experiment on MDA-MB-231, above 320 µM; in the experiment with HepG2 [2], 3.9 µM; in experiment [3] it was above 320 µM. In addition, the Activity in the experiment with HepG2 [4] was 1.03%; in the experiment with HepG2 [5] it was 6.62%; in the experiment with HepG2 [6], 47.51%.
Take `O=C(NCCCn1ccnc1)c1ccc([N+](=O)[O-])s1`: the IC50 is above 10 µM in experiment [1], above 390 µM with MDA-MB-231, 60 µM in the experiment with HepG2 [2] and above 390 µM in experiment [3].
As for `COc1ccc(CCNC(=O)/C=C/c2cccnc2)cc1OC`, the IC50 in experiment [1] is above 10 µM; in the experiment with MDA-MB-231 it was above 401 µM; in the experiment with HepG2 [2], above 401 µM; in experiment [3] it was above 401 µM.
As for `COc1ccc(CCNC(=O)c2ccc([N+](=O)[O-])s2)cc1OC`, the IC50 was above 10 µM in experiment [1], above 328 µM in the experiment with MDA-MB-231, 80 µM with HepG2 [2] and 86 µM in experiment [3].
As for `COc1ccc(CCNC(=O)c2sccc2C)cc1OC`, the IC50 in experiment [1] is 5.3 µM; in the experiment with MDA-MB-231, 191 µM; in the experiment on HepG2 [2], 99 µM; in experiment [3], 169 µM.
Consider `COc1ccc(CCNC(=O)c2cc3ccccc3o2)cc1OC`, for which the IC50 is 1.4 µM in experiment [1], above 371 µM with MDA-MB-231, 137 µM in the experiment on HepG2 [2] and 159 µM in experiment [3].
Consider `O=C(NCCCn1ccnc1)c1cc2ccccc2o1`, for which the IC50 was determined as 1 µM in experiment [1], 10 µM in the experiment with MDA-MB-231, 11 µM with HepG2 [2] and 61 µM in experiment [3].
On to `COc1ccc(CCNC(=O)c2ccc(C)s2)cc1OC`, for which the IC50 in experiment [1] is 0.86 µM; in the experiment with MDA-MB-231, above 307 µM; in the experiment with HepG2 [2], above 307 µM; in experiment [3], above 307 µM.
Regarding `COc1ccc(CCNC(=O)c2cc3ccccc3s2)cc1OC`, the IC50 was above 293 µM in the experiment on MDA-MB-231, 82 µM with HepG2 [2] and 281 µM in experiment [3].
For the molecule `COc1ccc(CCNC(=O)CNC(=O)c2sccc2C)cc1OC`, the IC50 in experiment [1] was above 10 µM; in the experiment on MDA-MB-231, above 328 µM; with HepG2 [2] it was 47 µM; in experiment [3], 196 µM.

By IC50 is commonly meant the concentration that inhibits the measured activity by half. Read a high IC50 as weaker potency.
